Test results taken from ChEMBL document CHEMBL1201862, “PubChem BioAssay data set” (2004).
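Each compound was tested at five concentrations against cells in 96-well plates for 48 hours. GI50 marks 50% less growth.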 The source made the active and inactive calls. No stated cut-off is given here; in the data, active = GI50 up to about 1.1 µM and inactive = higher.

Tests used:
Assay in all cases: NCI tumour cell line growth inhibition, 48 h
A549 = tested on: A549
RXF 393 = tested on: RXF 393
NCI-H226 = tested on: NCI-H226
COLO 205 = tested on: COLO 205
MDA-N = tested on: MDA-N
MDA-MB-435 = tested on: MDA-MB-435
SK-OV-3 = tested on: SK-OV-3
NCI-H460 = tested on: NCI-H460
HCT-15 = tested on: HCT-15
CAKI-1 = tested on: CAKI-1
MCF7 = tested on: MCF7
HCT-116 = tested on: HCT-116
T47D = tested on: T47D
LOX IMVI = tested on: LOX IMVI
HOP-62 = tested on: HOP-62
SF-295 = tested on: SF-295
CCRF-CEM = tested on: CCRF-CEM
RPMI-8226 = tested on: RPMI-8226
ACHN = tested on: ACHN
OVCAR-8 = tested on: OVCAR-8
DU-145 = tested on: DU-145
OVCAR-4 = tested on: OVCAR-4
NCI/ADR-RES = tested on: NCI/ADR-RES
MOLT-4 = tested on: MOLT-4
SW-620 = tested on: SW-620
SK-MEL-28 = tested on: SK-MEL-28
SK-MEL-5 = tested on: SK-MEL-5
BT-549 = tested on: BT-549
TK-10 = tested on: TK-10
OVCAR-3 = tested on: OVCAR-3
KM12 = tested on: KM12
NCI-H23 = tested on: NCI-H23
SNB-75 = tested on: SNB-75
OVCAR-5 = tested on: OVCAR-5
UO-31 = tested on: UO-31
K562 = tested on: K562
SNB-19 = tested on: SNB-19
MDA-MB-231 = tested on: MDA-MB-231
HCC 2998 = tested on: HCC 2998
EKVX = tested on: EKVX
SN12C = tested on: SN12C
A498 = tested on: A498
SF-268 = tested on: SF-268
IGROV-1 = tested on: IGROV-1
HL-60 = tested on: HL-60
U-251 = tested on: U-251
SF-539 = tested on: SF-539
UACC-62 = tested on: UACC-62
Malme-3M = tested on: Malme-3M
786-0 = tested on: 786-0
UACC-257 = tested on: UACC-257
M14 = tested on: M14
PC-3 = tested on: PC-3
SK-MEL-2 = tested on: SK-MEL-2
HT-29 = tested on: HT-29
HOP-92 = tested on: HOP-92
SR = tested on: SR
NCI-H522 = tested on: NCI-H522

For `O=c1c2nn[nH]c2nc2n1CC(c1ccccc1)S2` (configuration not stated), the GI50 (A549) was > 100 µM (inactive), the GI50 (RXF 393) was 29 µM (inactive) and the GI50 (NCI-H226) was > 100 µM (inactive). For the same compound, the GI50 (COLO 205) was > 100 µM (inactive), the GI50 (MDA-N) was > 100 µM (inactive) and the GI50 (MDA-MB-435) was > 100 µM (inactive). For the same compound, the GI50 (SK-OV-3) was > 100 µM (inactive), the GI50 (NCI-H460) was > 100 µM (inactive) and the GI50 (HCT-15) was greater than 100 µM. The GI50 (CAKI-1) was 13 µM (inactive), the GI50 (MCF7) was > 100 µM (inactive) and the GI50 (HCT-116) was > 100 µM (inactive). The GI50 (T47D) was > 100 µM (inactive), the GI50 (LOX IMVI) was > 100 µM (inactive) and the GI50 (HOP-62) was > 100 µM (inactive). For the same compound, the GI50 (SF-295) was > 100 µM (inactive), the GI50 (CCRF-CEM) was > 100 µM (inactive) and the GI50 (RPMI-8226) was > 100 µM (inactive). For the same compound, the GI50 (ACHN) was > 100 µM (inactive), the GI50 (OVCAR-8) was > 100 µM (inactive) and the GI50 (DU-145) was > 100 µM (inactive). For the same compound, the GI50 (OVCAR-4) was > 100 µM (inactive), the GI50 (NCI/ADR-RES) was > 100 µM (inactive) and the GI50 (MOLT-4) was > 100 µM (inactive). The GI50 (SW-620) was > 100 µM (inactive), the GI50 (SK-MEL-28) was > 100 µM (inactive) and the GI50 (SK-MEL-5) was > 100 µM (inactive). The GI50 (BT-549) was > 100 µM (inactive), the GI50 (TK-10) was > 100 µM (inactive) and the GI50 (OVCAR-3) was > 100 µM (inactive). The GI50 (KM12) was > 100 µM (inactive), the GI50 (NCI-H23) was > 100 µM (inactive) and the GI50 (SNB-75) was 72.1 µM (inactive). The GI50 (OVCAR-5) was > 100 µM (inactive), the GI50 (UO-31) was 45.3 µM (inactive) and the GI50 (K562) was > 100 µM (inactive). For the same compound, the GI50 (SNB-19) was > 100 µM (inactive), the GI50 (MDA-MB-231) was > 100 µM (inactive) and the GI50 (HCC 2998) was > 100 µM (inactive). For the same compound, the GI50 (EKVX) was > 100 µM (inactive), the GI50 (SN12C) was > 100 µM (inactive) and the GI50 (A498) was > 100 µM (inactive). For the same compound, the GI50 (SF-268) was > 100 µM (inactive), the GI50 (IGROV-1) was > 100 µM (inactive) and the GI50 (HL-60) was > 100 µM (inactive). The GI50 (U-251) was > 100 µM (inactive), the GI50 (SF-539) was > 100 µM (inactive) and the GI50 (UACC-62) was > 100 µM (inactive). The GI50 (Malme-3M) was > 100 µM (inactive), the GI50 (786-0) was > 100 µM (inactive) and the GI50 (UACC-257) was > 100 µM (inactive).
In the case of `Cn1cnc(/C=C/C#N)c1`, the GI50 (A549) is reported as > 100 µM (inactive), the GI50 (RXF 393) is reported as > 100 µM (inactive) and the GI50 (NCI-H226) is reported as 76.7 µM (inactive). The GI50 (COLO 205) was > 100 µM (inactive), the GI50 (MDA-N) was > 100 µM (inactive) and the GI50 (MDA-MB-435) was > 100 µM (inactive). For the same compound, the GI50 (SK-OV-3) was > 100 µM (inactive), the GI50 (NCI-H460) was > 100 µM (inactive) and the GI50 (HCT-15) was greater than 100 µM. For the same compound, the GI50 (CAKI-1) was > 100 µM (inactive), the GI50 (MCF7) was > 100 µM (inactive) and the GI50 (M14) was > 100 µM (inactive). For the same compound, the GI50 (HOP-62) was > 100 µM (inactive), the GI50 (SF-295) was > 100 µM (inactive) and the GI50 (CCRF-CEM) was > 100 µM (inactive). For the same compound, the GI50 (ACHN) was > 100 µM (inactive), the GI50 (OVCAR-8) was > 100 µM (inactive) and the GI50 (PC-3) was > 100 µM (inactive). The GI50 (SK-MEL-2) was > 100 µM (inactive), the GI50 (OVCAR-4) was > 100 µM (inactive) and the GI50 (NCI/ADR-RES) was > 100 µM (inactive). For the same compound, the GI50 (MOLT-4) was > 100 µM (inactive), the GI50 (SW-620) was > 100 µM (inactive) and the GI50 (SK-MEL-28) was > 100 µM (inactive). The GI50 (SK-MEL-5) was > 100 µM (inactive), the GI50 (BT-549) was > 100 µM (inactive) and the GI50 (TK-10) was > 100 µM (inactive). For the same compound, the GI50 (OVCAR-3) was > 100 µM (inactive), the GI50 (KM12) was > 100 µM (inactive) and the GI50 (NCI-H23) was > 100 µM (inactive). The GI50 (SNB-75) was > 100 µM (inactive), the GI50 (OVCAR-5) was > 100 µM (inactive) and the GI50 (UO-31) was > 100 µM (inactive). For the same compound, the GI50 (K562) was > 100 µM (inactive), the GI50 (SNB-19) was > 100 µM (inactive) and the GI50 (MDA-MB-231) was > 100 µM (inactive). The GI50 (HCC 2998) was > 100 µM (inactive), the GI50 (EKVX) was > 100 µM (inactive) and the GI50 (HT-29) was > 100 µM (inactive). The GI50 (SN12C) was > 100 µM (inactive), the GI50 (A498) was > 100 µM (inactive) and the GI50 (SF-268) was > 100 µM (inactive). The GI50 (HOP-92) was > 100 µM (inactive), the GI50 (IGROV-1) was > 100 µM (inactive) and the GI50 (U-251) was > 100 µM (inactive). The GI50 (SF-539) was > 100 µM (inactive), the GI50 (UACC-62) was > 100 µM (inactive) and the GI50 (SR) was > 100 µM (inactive). The GI50 (Malme-3M) was > 100 µM (inactive), the GI50 (NCI-H522) was > 100 µM (inactive) and the GI50 (UACC-257) was > 100 µM (inactive).
